Holding throughout (format): cell-based
The test system of assay [1] is Candida albican ATCC MYA-574. In words: In vitro antifungal activity (MIC80), Candida albican ATCC MYA-574. Conditions: Candida; Table 2, MYA 574; read-out: Minimal inhibitory concentration (MIC80). The protocol:
(§1) In vitro antifungal activities of the inventive antifungal compounds were evaluated using test strains including Candida albican (ATCC 90873, 204276, 62342, 64124, 64550, 96901, MYA-573, MYA-574, MYA-575, MYA-576, MYA-1003) and Aspergillus fumigatus (ATCC 16424). Test samples and positive control samples were prepared by dissolving the inventive compounds and comparative compounds, i.e., amphotericin B, fluconazole and itraconazole, in DMSO, respectively, and each successively diluted with medium to obtain test and positive control solutions having test compound concentrations of 0.125 μg/ml to a maximum concentration not generating turbidity. Minimal inhibitory concentration (MIC80) of each compound was determined as the lowest concentration of the test compounds required to reduce growth by 80% relative to a control strain not treated.
(§2) 1) Test strain: Candida albican ATCC 90873, 204276, 62342, 64124, 64550, 96901, MYA-573, MYA-574, MYA-575, MYA-576, MYA-1003, and Aspergillus fumigatus ATCC 16424 were commercially obtained from The American Type Culture Collection (ATCC) and subcultured in CHEMON Co. Ltd. (amphotericin B was commercially purchased from Sigma, and fluconazole and itraconazole were prepared according to methods described in British Patent No. 2,099,818; and U.S. Pat. No. 4,267,179, respectively).
(§3) 2) Medium and culture condition: Candida albican was cultured in Sabourad Dextrose Agar, YM Agar or Potato Dextrose Agar according to ATCC information at a temperature of 37° C., 35° C., 30° C. or 25° C. Aspergillus fumigatus was cultured in Malt Extract Agar or Potato Dextrose Agar at a temperature ranging from 24 to 27° C.
(§4) 3) Preparation of test samples: the inventive compounds and comparative compounds were each diluted with DMSO to obtain 1 to 2 ml of a test sample in a concentration of 100-folds of the determining maximum concentration (256 μg/ml).
(§5) The test samples were each successively diluted with RPMI 1640 to obtain test solutions having concentrations of […] in a 12×75 mm sterilized disposable culture tube. The final concentration of DMSO was adjusted to […] (v/v).
(§6) 5) Preparation of strain solution and inoculation
(§7) Candida albican strains were each subcultured in Sabourad Dextrose Agar, YM Agar or Potato Dextrose Agar medium at 35° C. for 2˜3 days. In the case of yeasts, a single colony was taken from prominent colonies and suspended in 0.85% sterile physiological saline solution and the turbidity of the suspension was adjusted to 80˜82% at 530 nm, and then diluted 50-fold with RPMI 1640 medium to 1.0×10^3˜5.0×10^3 CFU/ml. The turbidity of fungi was adjusted to 80˜82% and the suspension was diluted 50-fold to […]. Aspergillus fumigatus strains were subcultured in Malt Extract Agar for 7˜10 days, and a single colony was taken from prominent colonies and suspended in 0.85% sterile physiological saline solution and the suspension was adjusted to 0.108 at 530 nm, and then diluted 1000-fold with RPMI 1640 medium to 0.4×10^2˜5×10^4 CFU/ml. The turbidity of fungi was adjusted to 80˜82% and the suspension was diluted 50-fold to 0.4102˜0.5104 CFU/ml.
(§8) The strain solutions thus obtained were each seeded into a sterilized 96-well microplate, 0.1 ml of each test solution were added thereto, and […] of alamarblue was treated to each well (Biosource, #DAL1100). This procedure was repeated 2 times.
(§9) Minimal inhibitory concentration (MIC80) of each compound was determined as the lowest concentration of the test compounds required to reduce growth by 80% relative to a control strain not treated.

The test system of assay [2] is Candida albican ATCC MYA-573. In words: In vitro antifungal activity (MIC80), Candida albican ATCC MYA-573. To be noted: Candida; Table 2, MYA 573; read-out: Minimal inhibitory concentration (MIC80). The procedure:
as §1, §2, §3, §4, §5, §6, §7, §8, §9

In assay [3] the test system is Candida albican ATCC 62342. In words: In vitro antifungal activity (MIC80), Candida albican ATCC 62342. To be noted: Candida, ATCC62342; Table 2, 62342; read-out: Minimal inhibitory concentration (MIC80). The protocol: as §1, §2, §3, §4, §5, §6, §7, §8, §9
Assay [4] deals with Candida albican ATCC 64550. In words: In vitro antifungal activity (MIC80), Candida albican ATCC 64550. Conditions: Candida, ATCC64550; Table 2, 64550; read-out: Minimal inhibitory concentration (MIC80). The procedure:
as §1, §2, §3, §4, §5, §6, §7, §8, §9

The test system of assay [5] is Candida albican ATCC MYA-1003. In words: In vitro antifungal activity (MIC80), Candida albican ATCC MYA-1003. Conditions: Candida; Table 2, MYA 1003; read-out: Minimal inhibitory concentration (MIC80). The protocol:
as §1, §2, §3, §4, §5, §6, §7, §8, §9

Assay [6] relates to Candida albican ATCC MYA-576. The experiment in a line: In vitro antifungal activity (MIC80), Candida albican ATCC MYA-576. To be noted: Candida; Table 2, MYA 576; read-out: Minimal inhibitory concentration (MIC80). The procedure: as §1, §2, §3, §4, §5, §6, §7, §8, §9
Assay [7] relates to Candida albican ATCC MYA-575. The experiment in a line: In vitro antifungal activity (MIC80), Candida albican ATCC MYA-575. Conditions: Candida; Table 2, MYA 575; read-out: Minimal inhibitory concentration (MIC80). The protocol:
as §1, §2, §3, §4, §5, §6, §7, §8, §9

Assay [8] deals with Candida albican ATCC 96901. In words: In vitro antifungal activity (MIC80), Candida albican ATCC 96901. To be noted: Candida, ATCC96901; Table 2, ATCC 96901; read-out: Minimal inhibitory concentration (MIC80). The procedure:
as §1, §2, §3, §4, §5, §6, §7, §8, §9

Assay [9] relates to Candida albican ATCC 64124. The experiment in a line: In vitro antifungal activity (MIC80), Candida albican ATCC 64124. Conditions: Candida, ATCC64124; Table 2, 64124; read-out: Minimal inhibitory concentration (MIC80). The protocol:
as §1, §2, §3, §4, §5, §6, §7, §8, §9

Assay [10] deals with Candida albican ATCC 90873. In words: In vitro antifungal activity (MIC80), Candida albican ATCC 90873. Conditions: Candida, ATCC90873; Table 2, ATCC 90873; read-out: Minimal inhibitory concentration (MIC80). The procedure: as §1, §2, §3, §4, §5, §6, §7, §8, §9

≈ marks a conversion by molar mass, not a printed value.

`CC(C)Oc1cccc(N2CCN([C@H](C)[C@](O)(Cn3cncn3)c3ccc(F)cc3F)CC2)n1` [Example 24, (2R,3R)-2-(2,4-difluorophenyl)-3-(4-(6-(isopropyloxy)pyridin-2-yl)piperazin-1-yl)-1-(1H-1,2,4-triazol-1-yl)butan-2-ol]: the MIC80 was 8 µg/mL (≈ 16.9 µM) in assay [1]; 4 µg/mL (≈ 8.46 µM) in assay [2]; 8 µg/mL (≈ 16.9 µM) in assay [3]; 2 µg/mL (≈ 4.23 µM) in assay [4]; more than 128 µg/mL in assay [5]; 0.25 µg/mL (≈ 0.529 µM) in assay [6]. The MIC80 in assay [7] is 0.5 µg/mL (≈ 1.06 µM); in assay [8], more than 128 µg/mL; in assay [9], more than 128 µg/mL; in assay [10] it was 0.125 µg/mL (≈ 0.265 µM).
For `C[C@@H](N1CCN(c2nc3cc(Cl)ccc3o2)CC1)[C@](O)(Cn1cncn1)c1ccc(F)cc1F` [Example 5, (2R,3R)-3-(4-(5-chlorobenzooxazol-2-yl)piperazin-1-yl)-2-(2,4-difluorophenyl)-1-(1H-1,2,4-triazol-1-yl)butan-2-ol], the MIC80 in assay [1] was 0.5 µg/mL (≈ 1.02 µM); in [2], 0.25 µg/mL (≈ 0.511 µM); in assay [3], 0.125 µg/mL (≈ 0.256 µM); in [4], 0.5 µg/mL (≈ 1.02 µM); in assay [5], more than 128 µg/mL; in [6] it was 0.125 µg/mL (≈ 0.256 µM). Also, the MIC80 is 0.125 µg/mL (≈ 0.256 µM) in assay [7], 2 µg/mL (≈ 4.09 µM) in assay [8], 2 µg/mL (≈ 4.09 µM) in [9] and 0.125 µg/mL (≈ 0.256 µM) in assay [10].
`C[C@@H](N1CCN(c2ccc(OC3CCCC3)nc2)CC1)[C@](O)(Cn1cncn1)c1ccc(F)cc1F` [Example 31, (2R,3R)-3-(4-(6-(cyclopentyloxy)pyridin-3-yl)piperazin-1-yl)-2-(2,4-difluorophenyl)-1-(1H-1,2,4-triazol-1-yl)butan-2-ol]: the MIC80 in [1] was 4 µg/mL (≈ 8.02 µM); in [2] it was 2 µg/mL (≈ 4.01 µM); in [3] it was 1 µg/mL (≈ 2.01 µM); in [4], 1 µg/mL (≈ 2.01 µM); in [5] it was more than 128 µg/mL; in assay [6], 0.25 µg/mL (≈ 0.501 µM). The MIC80 in [7] was 0.25 µg/mL (≈ 0.501 µM); in [8], 4 µg/mL (≈ 8.02 µM); in [9], 64 µg/mL (≈ 128 µM); in [10] it was 0.125 µg/mL (≈ 0.251 µM).
In the case of `CC(N1CCN(c2ccc(N(C)CCCN3CCOCC3)nc2)CC1)C(O)(Cn1cncn1)c1ccc(F)cc1F` (stereo not drawn) [Example 36], the MIC80 in assay [1] was determined as 8 µg/mL (≈ 14 µM); in [2], 8 µg/mL (≈ 14 µM); in assay [3] it was 4 µg/mL (≈ 7.01 µM); in [4], 16 µg/mL (≈ 28 µM); in assay [5], 128 µg/mL (≈ 224 µM); in assay [6] it was 4 µg/mL (≈ 7.01 µM). The MIC80 in assay [7] was 2 µg/mL (≈ 3.5 µM); in assay [8] it was 16 µg/mL (≈ 28 µM); in assay [9], 128 µg/mL (≈ 224 µM); in [10] it was 2 µg/mL (≈ 3.5 µM).
Regarding `C[C@@H](N1CCN(c2cccc(OC3CCCC3)n2)CC1)[C@](O)(Cn1cncn1)c1ccc(F)cc1F` [Example 22, (2R,3R)-3-(4-(6-(cyclopentyloxy)pyridin-2-yl)piperazin-1-yl)-2-(2,4-difluorophenyl)-1-(1H-1,2,4-triazol-1-yl)butan-2-ol], the MIC80 is more than 128 µg/mL in assay [1]; 32 µg/mL (≈ 64.2 µM) in assay [2]; 128 µg/mL (≈ 257 µM) in [3]; 64 µg/mL (≈ 128 µM) in assay [4]; more than 128 µg/mL in assay [5]; 0.5 µg/mL (≈ 1 µM) in assay [6]. The MIC80 in [7] is 0.5 µg/mL (≈ 1 µM); in assay [8], more than 128 µg/mL; in assay [9], more than 128 µg/mL; in [10], 0.5 µg/mL (≈ 1 µM).
In the case of `C[C@@H](N1CCN(c2cccc(OCC3CC3)n2)CC1)[C@](O)(Cn1cncn1)c1ccc(F)cc1F` [Example 21, (2R,3R)-3-(4-(6-(cyclopropylmethoxy)pyridin-2-yl)piperazin-1-yl)-2-(2,4-difluorophenyl)-1-(1H-1,2,4-triazol-1-yl)butan-2-ol], the MIC80 in assay [1] is 128 µg/mL (≈ 264 µM); in assay [2], 8 µg/mL (≈ 16.5 µM); in assay [3] it was 8 µg/mL (≈ 16.5 µM); in assay [4] it was 8 µg/mL (≈ 16.5 µM); in [5], more than 128 µg/mL; in [6], 0.25 µg/mL (≈ 0.516 µM). Further, the MIC80 was 0.25 µg/mL (≈ 0.516 µM) in assay [7], more than 128 µg/mL in [8], more than 128 µg/mL in [9] and 0.125 µg/mL (≈ 0.258 µM) in assay [10].

The values are drawn from patent US20100144712A1 (priority 2007, published 2010).
